For orientation: IC50 means the midpoint of a concentration-inhibition curve.

The target of experiment [1] is T1, G protein-coupled receptor kinase 5 (Bos taurus, UniProt P43249). In words: ChEBML_1612831. The protocol: (§1) Inhibition of bovine GRK5 assessed as decrease in phosphorylation of tubulin after 5 mins by SDS-PAGE analysis
The target of experiment [2] is T2, Rhodopsin kinase GRK1 (Bos taurus, UniProt P28327).
T2 sequence (P28327 whole entry): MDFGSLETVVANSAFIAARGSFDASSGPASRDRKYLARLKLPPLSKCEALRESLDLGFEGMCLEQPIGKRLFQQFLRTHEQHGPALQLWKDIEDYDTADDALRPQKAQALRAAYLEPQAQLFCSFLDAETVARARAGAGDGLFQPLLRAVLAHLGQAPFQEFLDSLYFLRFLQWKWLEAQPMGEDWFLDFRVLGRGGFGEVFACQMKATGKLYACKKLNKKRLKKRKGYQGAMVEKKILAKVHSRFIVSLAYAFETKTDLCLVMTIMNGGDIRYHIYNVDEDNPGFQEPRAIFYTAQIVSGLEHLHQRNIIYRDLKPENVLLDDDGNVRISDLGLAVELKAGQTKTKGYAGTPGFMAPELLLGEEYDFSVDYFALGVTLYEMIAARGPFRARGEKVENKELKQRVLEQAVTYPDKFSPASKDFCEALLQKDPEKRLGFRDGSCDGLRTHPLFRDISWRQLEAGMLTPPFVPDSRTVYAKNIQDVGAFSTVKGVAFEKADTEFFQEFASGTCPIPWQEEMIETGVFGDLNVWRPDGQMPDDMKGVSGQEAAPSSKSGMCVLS
In words: Inhibition of C-terminal hexahistidine tagged bovine GRK1 (535 residues) assessed as decrease in phosphorylation of light-activated bovine rod outer segments preincubated for 30 mins followed by ATP addition.

For experiment [3], the target named is T1, G protein-coupled receptor kinase 5. Kind of experiment: Inhibition of C-terminal hexahistidine tagged bovine GRK5 (561 residues) assessed as decrease in phosphorylation of tubulin preincubated for 30 mins followed by ATP addition.
The target of experiment [4] is T2, Rhodopsin kinase GRK1. Kind of experiment: Inhibition of C-terminal hexahistidine tagged bovine GRK1 (535 residues) assessed as decrease in phosphorylation of tubulin preincubated for 30 mins followed by ATP addition.
The target of experiment [5] is T2, Rhodopsin kinase GRK1. In words: ChEBML_1612830. The protocol: (§2) Inhibition of bovine GRK1 (1 to 535 residues) assessed as decrease in phosphorylation of tubulin after 5 mins by SDS-PAGE analysis
For experiment [6], the target named is T1, G protein-coupled receptor kinase 5. Kind of experiment: Inhibition of C-terminal hexahistidine tagged bovine GRK5 (561 residues) assessed as decrease in phosphorylation of light-activated bovine rod outer segments preincubated for 30 mins followed by ATP addition.
The target is the same in experiment [7]. The experiment is described as §1.
Experiment [8] has as its target T2, Rhodopsin kinase GRK1. The description is as §2.

Structures are written as SMILES.

T1 sequence (P43249 whole entry): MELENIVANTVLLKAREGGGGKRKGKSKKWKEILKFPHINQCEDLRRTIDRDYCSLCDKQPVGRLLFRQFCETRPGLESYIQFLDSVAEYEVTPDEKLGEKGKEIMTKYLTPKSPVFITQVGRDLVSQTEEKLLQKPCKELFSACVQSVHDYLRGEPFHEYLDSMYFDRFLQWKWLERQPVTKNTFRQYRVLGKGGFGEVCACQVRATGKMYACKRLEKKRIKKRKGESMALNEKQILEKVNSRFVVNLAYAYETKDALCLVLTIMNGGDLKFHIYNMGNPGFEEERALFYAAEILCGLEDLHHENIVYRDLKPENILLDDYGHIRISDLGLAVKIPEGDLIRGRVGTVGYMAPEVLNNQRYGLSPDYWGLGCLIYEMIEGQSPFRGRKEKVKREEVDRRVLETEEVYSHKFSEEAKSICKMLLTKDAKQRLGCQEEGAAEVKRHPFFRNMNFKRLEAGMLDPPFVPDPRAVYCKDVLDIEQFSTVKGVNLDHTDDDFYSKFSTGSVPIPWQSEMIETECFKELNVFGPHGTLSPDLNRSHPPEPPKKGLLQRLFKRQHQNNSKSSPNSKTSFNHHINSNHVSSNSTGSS

In experiment [1], `CC1=C(C(=O)Nc2ccc3[nH]ncc3c2)C(c2ccc(Cl)c(Cl)c2)CC(=O)N1` (centres undefined) [4-(3,4-Dichlorophenyl)-N-1H-indazol-5-yl-2-methyl-6-oxo-1,4,5,6-tetrahydropyridine-3-carboxamide] had an IC50 of 79.4 µM.
In the case of `Fc1ccc([C@@H]2CCNC[C@H]2COc2ccc3c(c2)OCO3)cc1` [PAROXETINE], the IC50 was 316 µM on Rhodopsin kinase GRK1 [2]; 126 µM in experiment [3]; 158 µM at Rhodopsin kinase GRK1 [4]; 398 µM at Rhodopsin kinase GRK1 [5]; 251 µM in experiment [6].
With `CC1=C(C(=O)Nc2ccc3[nH]ncc3c2)C(c2ccc3ccccc3c2)CC(=O)N1` (centres undefined) [N-(1H-indazol-5-yl)-2-methyl-4-(naphthalen-2-yl)-6-oxo-1,4,5,6-tetrahydropyridine-3-carboxamide], the values for the IC50 (in experiment [7]; on Rhodopsin kinase GRK1 [8]) were 63.1 µM and 794 µM, respectively.
Turning to `CC1=C(C(=O)Nc2cc(Cl)c3[nH]ncc3c2)C(c2ccc(C(F)(F)F)cc2)CC(=O)N1` (centres undefined) [N-(7-chloro-1H-indazol-5-yl)-2-methyl-6-oxo-4-[4-(trifluoromethyl)phenyl]-1,4,5,6-tetrahydropyridine-3-carboxamide], the IC50 in experiment [7] is 39.8 µM.
